Results as given in ChEMBL document CHEMBL4828726, “Modification of 5-methylphenanthridium from benzothiazoles to indoles as potent FtsZ inhibitors: Broadening the antibacterial spectrum toward vancomycin-resistant enterococci” (Eur J Med Chem, 2021).
≈ marks a conversion by molar mass, not a printed value. Calls of active or inactive are those of the source. The calls are words filed in the database; no cut-off is given here.

What was measured:
[1] = test system: Bacillus subtilis; assay: Antibacterial activity against penicillin-susceptible Bacillus subtilis ATCC 9372 assessed as inhibition of bacterial growth measured after 20 hrs by two-fold microdilution assay; format: functional
[2] = test system: Bacillus pumilus; assay: Antibacterial activity against penicillin-susceptible Bacillus pumilus CMCC63202 assessed as inhibition of bacterial growth measured after 20 hrs by two-fold microdilution assay; format: functional
[3] = test system: Streptococcus pyogenes; assay: Antibacterial activity against erythromycin-susceptible Streptococcus pyogenes assessed as inhibition of bacterial growth measured after 20 hrs by two-fold microdilution assay; format: functional
[4] = test system: Escherichia coli; assay: Antibacterial activity against penicillin-susceptible Escherichia coli ATCC 25922 assessed as inhibition of bacterial growth measured after 20 hrs by two-fold microdilution assay; format: functional
[5] = test system: Pseudomonas aeruginosa; assay: Antibacterial activity against penicillin-susceptible Pseudomonas aeruginosa ATCC 27853 assessed as inhibition of bacterial growth measured after 20 hrs by two-fold microdilution assay; format: functional
[6] = test system: Streptococcus pyogenes; assay: Antibacterial activity against erythromycin-resistant Streptococcus pyogenes assessed as inhibition of bacterial growth measured after 20 hrs by two-fold microdilution assay; format: functional
[7] = test system: Staphylococcus epidermidis; assay: Antibacterial activity against penicillin-resistant Staphylococcus epidermidis assessed as inhibition of bacterial growth measured after 20 hrs by two-fold microdilution assay; format: functional
[8] = test system: Enterococcus faecium; assay: Antibacterial activity against Vancomycin-susceptible Enterococcus faecium ATCC 19434 assessed as inhibition of bacterial growth measured after 20 hrs by two-fold microdilution assay; format: functional
[9] = test system: Enterococcus faecium; assay: Antibacterial activity against Vancomycin-resistant Enterococcus faecium ATCC 51559 assessed as inhibition of bacterial growth measured after 20 hrs by two-fold microdilution assay; format: functional
[10] = test system: Bacillus subtilis; assay: Bactericidal activity against penicillin-susceptible Bacillus subtilis ATCC 9372 assessed as inhibition of bacterial growth measured after 20 hrs by two-fold microdilution assay; format: functional
[11] = test system: Bacillus pumilus; assay: Bactericidal activity against penicillin-susceptible Bacillus pumilus CMCC63202 assessed as inhibition of bacterial growth measured after 20 hrs by two-fold microdilution assay; format: functional
[12] = test system: Staphylococcus aureus; assay: Bactericidal activity against erythromycin-susceptible Staphylococcus aureus ATCC 25923 assessed as inhibition of bacterial growth measured after 20 hrs by two-fold microdilution assay; format: functional
[13] = test system: Staphylococcus aureus; assay: Bactericidal activity against methicillin-resistant Staphylococcus aureus ATCC43300 assessed as inhibition of bacterial growth measured after 20 hrs by two-fold microdilution assay; format: functional
[14] = test system: Staphylococcus aureus; assay: Bactericidal activity against penicillin-resistant Staphylococcus aureus ATCC 31007 assessed as inhibition of bacterial growth measured after 20 hrs by two-fold microdilution assay; format: functional
[15] = test system: Enterococcus faecalis; assay: Bactericidal activity against Vancomycin-susceptible Enterococcus faecalis ATCC 29212 assessed as inhibition of bacterial growth measured after 20 hrs by two-fold microdilution assay; format: functional
[16] = test system: Enterococcus faecium; assay: Bactericidal activity against Vancomycin-susceptible Enterococcus faecium ATCC 19434 assessed as inhibition of bacterial growth measured after 20 hrs by two-fold microdilution assay; format: functional
[17] = test system: Enterococcus faecium; assay: Bactericidal activity against Vancomycin-resistant Enterococcus faecium ATCC 51559 assessed as inhibition of bacterial growth measured after 20 hrs by two-fold microdilution assay; format: functional
[18] = test system: Enterococcus faecalis; assay: Bactericidal activity against Vancomycin-resistant Enterococcus faecalis ATCC 51299 assessed as inhibition of bacterial growth measured after 20 hrs by two-fold microdilution assay; format: functional
[19] = test system: Staphylococcus aureus; assay: Antibacterial activity against Staphylococcus aureus ATCC 25923 assessed as decrease of bacterial growth at 32 ug/ml measured up to 24 hrs by Time kill assay; format: functional, organism-based; conditions: dose 32.0 µg/ml, time hrs <=24
[20] = molecular target: T1, Cell division protein FtsZ (Bacillus subtilis (strain 168)) (UniProt P17865); assay: Inhibition of Bacillus subtilis FtsZ assessed as promotion of FtsZ polymerization at 10 ug/ml measured after […] by fluorescence spectrometer based light scattering assay; conditions: dose 10.0 µg/ml
T1 sequence (whole entry): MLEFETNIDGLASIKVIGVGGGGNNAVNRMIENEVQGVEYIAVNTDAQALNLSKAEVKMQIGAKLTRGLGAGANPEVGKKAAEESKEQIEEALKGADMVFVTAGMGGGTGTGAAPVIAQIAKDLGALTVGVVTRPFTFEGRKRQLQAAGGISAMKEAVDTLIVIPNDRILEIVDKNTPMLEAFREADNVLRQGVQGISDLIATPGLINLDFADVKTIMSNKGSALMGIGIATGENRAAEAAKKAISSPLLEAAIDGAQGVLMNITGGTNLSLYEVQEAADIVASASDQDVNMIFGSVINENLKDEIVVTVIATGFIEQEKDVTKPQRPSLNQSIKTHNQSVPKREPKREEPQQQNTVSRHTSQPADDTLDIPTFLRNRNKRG

[21] = test system: Staphylococcus aureus; assay: Antibacterial activity against Staphylococcus aureus ATCC 25923 infected in Kunming mouse assessed as decrease in viable bacterial in eye blood at 5 mg/kg, ip measured after 1 hr; format: functional, organism-based
[22] = test system: Staphylococcus aureus; assay: Antibacterial activity against Staphylococcus aureus ATCC 25923 assessed as fold change in MIC value measured after 14 passages by Multi passage resistance assay; format: functional, organism-based
[23] = test system: Staphylococcus aureus; assay: Antibacterial activity against erythromycin-susceptible Staphylococcus aureus ATCC 25923 assessed as inhibition of bacterial growth measured after 20 hrs by two-fold microdilution assay; format: functional
[24] = test system: Staphylococcus aureus; assay: Antibacterial activity against methicillin-resistant Staphylococcus aureus ATCC43300 assessed as inhibition of bacterial growth measured after 20 hrs by two-fold microdilution assay; format: functional
[25] = test system: Staphylococcus aureus; assay: Antibacterial activity against penicillin-resistant Staphylococcus aureus ATCC 31007 assessed as inhibition of bacterial growth measured after 20 hrs by two-fold microdilution assay; format: functional
[26] = test system: Staphylococcus aureus; assay: Antibacterial activity against clinical isolate Staphylococcus aureus C1 assessed as inhibition of bacterial growth measured after 20 hrs by two-fold microdilution assay; format: functional
[27] = test system: Enterococcus faecalis; assay: Antibacterial activity against Vancomycin-susceptible Enterococcus faecalis ATCC 29212 assessed as inhibition of bacterial growth measured after 20 hrs by two-fold microdilution assay; format: functional
[28] = test system: Enterococcus faecalis; assay: Antibacterial activity against Vancomycin-resistant Enterococcus faecalis ATCC 51299 assessed as inhibition of bacterial growth measured after 20 hrs by two-fold microdilution assay; format: functional
[29] = test system: Bacillus subtilis; assay: Ratio of MBC to MIC against penicillin-susceptible Bacillus subtilis ATCC 9372; format: functional
[30] = test system: Staphylococcus aureus; assay: Ratio of MBC to MIC against erythromycin-susceptible Staphylococcus aureus ATCC 25923; format: functional
[31] = test system: Staphylococcus aureus; assay: Ratio of MBC to MIC against penicillin-resistant Staphylococcus aureus ATCC 31007; format: functional
[32] = test system: Staphylococcus aureus; assay: Antibacterial activity against Staphylococcus aureus ATCC 25923 assessed as reduction of colony forming units at 4 to 64 ug/ml measured up to 24 hrs by Time kill assay; format: functional, organism-based; conditions: dose 4-64 µg/ml, time hrs <=24
[33] = test system: Pseudomonas aeruginosa; assay: Anti-biofilm activity against Pseudomonas aeruginosa ATCC 27853 assessed as inhibition of biofilm formation at 4 to 64 ug/ml measured after 20 hrs by crystal violet staining based biofilm formation inhibition assay; format: functional, organism-based; conditions: dose 4-64 µg/ml
[34] = Hemolytic activity against mouse RBC at 1 to 16 ug/ml measured after 1 hr by hemolysis assay relative to Triton X-100; format: ADME, cell-based, Erythrocyte; conditions: mouse red blood cells (erythrocytes), at 1 to 16 µg/mL, dose 1-16 µg/ml, read-out: Activity
[35] = test system: Staphylococcus aureus; assay: Antibacterial activity against Staphylococcus aureus ATCC 25923 infected in Kunming mouse assessed as decrease in viable bacterial in eye blood at 25 mg/kg, ip measured after 1 hr; format: functional, organism-based
[36] = test system: Bacillus pumilus; assay: Inhibition of Bacillus pumilus CMCC63202 FtsZ assessed as change in morphology by measuring increase of cell length at 16 ug/ml measured after 20 hrs by optical microscopy; conditions: dose 16.0 µg/ml
[37] = molecular target: T1, Cell division protein FtsZ (Bacillus subtilis (strain 168)); assay: Inhibition of Bacillus subtilis FtsZ assessed as promotion of FtsZ polymerization measured after […] by fluorescence spectrometer based light scattering assay; conditions: dose 2.5-10 µg/ml
[38] = test system: Bacillus pumilus; assay: Inhibition of Bacillus pumilus CMCC63202 FtsZ assessed as aggregation of FtsZ at 10 ug/ml pre-incubated for 30 mins followed by addition of GTP and measured after 30 mins measured after by Transmission electron microscopic method; conditions: dose 10.0 µg/ml
[39] = test system: Staphylococcus aureus; assay: Antibacterial activity against Staphylococcus aureus ATCC 25923 assessed as decrease of bacterial growth measured up to 24 hrs by Time kill assay; format: functional, organism-based; conditions: dose 4-32 µg/ml, time hrs <=24
[40] = test system: Staphylococcus aureus; assay: Antibacterial activity against Staphylococcus aureus ATCC 25923 assessed as fold increase in MIC value measured after 1 passage by Multi passage resistance assay; format: functional
[41] = test system: Bacillus pumilus; assay: Ratio of MBC to MIC against penicillin-susceptible Bacillus pumilus CMCC63202; format: functional
[42] = test system: Staphylococcus aureus; assay: Ratio of MBC to MIC against methicilline-resistant Staphylococcus aureus ATCC43300; format: functional

Row | Structure (SMILES) | MIC [1] | MIC [2] | MIC [3] | MIC [4] | MIC [5] | MIC [6] | MIC [7] | MIC [8] | MIC [9] | MBC [10] | MBC [11] | MBC [12] | MBC [13] | MBC [14] | MIC [23] | MIC [24] | MIC [25] | MIC [26] | MIC [27] | MIC [28] | other results
1 | CC(=O)NC[C@H]1CN(c2ccc(N3CCOCC3)c(F)c2)C(=O)O1 [LINEZOLID] | 0.5 µg/mL (≈ 1.48 µM) | 2 µg/mL (≈ 5.93 µM) | 1 µg/mL (≈ 2.96 µM) | > 64 µg/mL | > 64 µg/mL | 1 µg/mL (≈ 2.96 µM) | 4 µg/mL (≈ 11.9 µM) | 4 µg/mL (≈ 11.9 µM) | 4 µg/mL (≈ 11.9 µM) | 64 µg/mL (≈ 190 µM) | 16 µg/mL (≈ 47.4 µM) | 128 µg/mL (≈ 379 µM) | 8 µg/mL (≈ 23.7 µM) | 16 µg/mL (≈ 47.4 µM) |  |  |  |  |  |  | MBC [15]: 64 µg/mL (≈ 190 µM); MBC [16]: > 64 µg/mL; MBC [17]: 64 µg/mL (≈ 190 µM); MBC [18]: 64 µg/mL (≈ 190 µM); Activity [19]: Active; inhibition [20]: inactive
2 | Cc1cccc2c[n+](C)c3ccc(-c4ccc5ccn(Cc6ccccc6)c5c4)cc3c12.[Cl-] | 4 µg/mL | 4 µg/mL | 8 µg/mL | > 64 µg/mL | > 64 µg/mL | 8 µg/mL | 8 µg/mL | 8 µg/mL | 8 µg/mL | 16 µg/mL | > 64 µg/mL | 32 µg/mL | 64 µg/mL | 64 µg/mL | 1 µg/mL | 2 µg/mL | 4 µg/mL | 2 µg/mL | 8 µg/mL | 16 µg/mL | Activity [21]: Active; Activity [22]: Active; Ratio [29]: 4; Ratio [30]: 32; Ratio [31]: 16; Activity [32]: Active; Activity [33]: inactive; hemolysis at 1 h [34]: < 8%; Activity [35]: Active; inhibition [36]: Active; inhibition [37]: Active; inhibition [38]: Active; Activity [39]: Dose-Dependent Effect; fold change (FC) [40]: 2
3 | Cc1ccc2c[n+](C)c3ccc(-c4ccc5ccn(Cc6ccccc6)c5c4)cc3c2c1.[Cl-] | 2 µg/mL | 4 µg/mL | 4 µg/mL | > 64 µg/mL | > 64 µg/mL | 4 µg/mL | 8 µg/mL | 4 µg/mL | 4 µg/mL | 4 µg/mL | 64 µg/mL | 32 µg/mL | 16 µg/mL | 64 µg/mL | 2 µg/mL | 4 µg/mL | 4 µg/mL | 2 µg/mL | 8 µg/mL | 16 µg/mL | Ratio [29]: 2; Ratio [41]: 16; Ratio [30]: 16; Ratio [42]: 4
